# Assays:
# [1] = biological target: T1, human MET kinase del Ex14 (Homo sapiens, UniProt P08581, DEL963-1009); assay: c-Met Enzyme Assay, del Ex14 mutant; assay type: binding; conditions: averaged IC50; del Ex14 5 nM; 60-minute incubation at 22° C.; read-out: Del14 IC50
# T1 construct: GST-tagged recombinant human MET kinase domain; purchased Signal Chem
# Experimental: (§1) The affinity of compound binding to wild type and mutant human MET kinases was measured using Invitrogen's LanthaScreen™ Eu Kinase Binding technology. Briefly, GST-tagged recombinant human MET kinase domain from Signal Chem (see Table 8 below for concentration in assay) was incubated with 50 nM Alexa-Fluor® Tracer 236 (Invitrogen Cat No. PR9078A) and 2 nM Europium-anti-GST (Invitrogen Cat. No. A15116) along with test compound in a buffer consisting of 25 mM HEPES, pH 7.4, 10 mM MgCl2, 0.01% Triton X-100, 1mM DTT, and 2% DMSO. Compounds were typically prepared in a three-fold serial dilution in DMSO and added to the assay to give the appropriate final concentration. After a 60-minute incubation at 22° C., the reaction was measured using a PerkinElmer EnVision multimode plate reader via TR-FRET dual wavelength detection, and the percent of control (POC) calculated using a ratiometric emission factor. […] The POC values were fit to a 4 parameter logistic curve and the IC50 value is point where the curve crosses 50 POC.
# [2] = biological target: T2, His-tagged recombinant human AXL cytoplasmic domain (Homo sapiens, UniProt P30530); assay: AXL Enzyme Assay (LanthaScreen Eu Kinase Binding); conditions: averaged IC50; 60-minute incubation at 22° C.; TR-FRET
# T2 construct: His-tagged recombinant human AXL cytoplasmic domain
# T2 sequence (P30530 473-894 limits assumed): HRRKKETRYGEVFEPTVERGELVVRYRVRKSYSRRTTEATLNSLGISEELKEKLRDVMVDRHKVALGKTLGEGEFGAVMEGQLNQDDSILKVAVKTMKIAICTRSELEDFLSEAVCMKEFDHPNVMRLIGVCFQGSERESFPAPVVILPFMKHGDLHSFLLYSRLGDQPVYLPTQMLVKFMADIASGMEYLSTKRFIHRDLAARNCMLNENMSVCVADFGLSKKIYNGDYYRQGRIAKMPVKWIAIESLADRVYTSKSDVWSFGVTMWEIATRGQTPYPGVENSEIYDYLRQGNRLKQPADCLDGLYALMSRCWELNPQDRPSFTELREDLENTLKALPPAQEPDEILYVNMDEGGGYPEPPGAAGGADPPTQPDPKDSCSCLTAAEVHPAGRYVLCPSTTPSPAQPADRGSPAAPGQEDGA
# Experimental: Compounds disclosed herein were screened for their ability to inhibit AXL kinase using Invitrogen's LanthaScreen™Eu Kinase Binding technology. His-tagged recombinant human AXL cytoplasmic domain was incubated with 20 nM Alexa-Fluor® Tracer 236 (PR9078A), 2 nM biotinylated anti-His (Cat. No. M4408), and 2 nM europium-labeled Streptavidin (Cat. No. PV5899) along with test compound in a buffer consisting of 25 mM HEPES, pH 7.4, 10 mM MgCl2, 0.01% Triton X-100, and 2% DMSO. Compounds were typically prepared in a threefold serial dilution in DMSO and added to the assay to give the appropriate final concentration. After a 60-minute incubation at 22° C., the reaction was measured using a PerkinElmer EnVision multimode plate reader via TR-FRET dual wavelength detection, and the percent of control (POC) was calculated using a ratiometric emission factor. […] The POC values are fit to a 4 parameter logistic curve and the IC50 value is point where the curve crosses 50 POC.
# human MET kinase D1228N = biological target: T3, human MET kinase D1228N (Homo sapiens, UniProt P08581, D1228N); assay: c-Met Enzyme Assay, D1228N mutant; assay type: binding; conditions: averaged IC50; D1228N 2 nM; 60-minute incubation at 22° C.; read-out: D1228 N IC50
# T3 construct: GST-tagged recombinant human MET kinase domain; purchased Signal Chem
# T3 sequence (P08581 1078-1345 D1228N): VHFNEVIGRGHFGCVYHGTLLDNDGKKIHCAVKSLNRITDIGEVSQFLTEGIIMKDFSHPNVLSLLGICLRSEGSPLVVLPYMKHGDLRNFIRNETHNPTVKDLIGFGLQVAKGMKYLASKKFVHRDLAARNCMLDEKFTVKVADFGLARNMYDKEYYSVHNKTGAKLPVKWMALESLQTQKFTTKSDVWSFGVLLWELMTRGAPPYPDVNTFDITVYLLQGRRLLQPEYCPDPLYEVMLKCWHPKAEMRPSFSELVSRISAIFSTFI
# Experimental: as §1
# human MET kinase Y1230S = biological target: T4, human MET kinase Y1230S (Homo sapiens, UniProt P08581, Y1230S); assay: c-Met Enzyme Assay, Y1230S mutant; assay type: binding; conditions: averaged IC50; Y1230S 8 nM; 60-minute incubation at 22° C.; read-out: Y1230 S IC50
# T4 construct: GST-tagged recombinant human MET kinase domain; purchased Signal Chem
# T4 sequence (P08581 1078-1345 Y1230S): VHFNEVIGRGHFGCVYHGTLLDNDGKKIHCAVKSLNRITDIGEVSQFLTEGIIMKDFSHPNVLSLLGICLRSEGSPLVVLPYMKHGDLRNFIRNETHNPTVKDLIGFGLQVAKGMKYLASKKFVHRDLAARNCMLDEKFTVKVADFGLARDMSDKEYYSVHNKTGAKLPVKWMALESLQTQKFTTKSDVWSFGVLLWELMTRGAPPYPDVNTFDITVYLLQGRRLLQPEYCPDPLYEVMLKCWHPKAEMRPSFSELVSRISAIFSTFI
# Experimental: as §1
# T1 sequence (P08581 with tags, fused parts or gaps DEL963-1009 limits assumed): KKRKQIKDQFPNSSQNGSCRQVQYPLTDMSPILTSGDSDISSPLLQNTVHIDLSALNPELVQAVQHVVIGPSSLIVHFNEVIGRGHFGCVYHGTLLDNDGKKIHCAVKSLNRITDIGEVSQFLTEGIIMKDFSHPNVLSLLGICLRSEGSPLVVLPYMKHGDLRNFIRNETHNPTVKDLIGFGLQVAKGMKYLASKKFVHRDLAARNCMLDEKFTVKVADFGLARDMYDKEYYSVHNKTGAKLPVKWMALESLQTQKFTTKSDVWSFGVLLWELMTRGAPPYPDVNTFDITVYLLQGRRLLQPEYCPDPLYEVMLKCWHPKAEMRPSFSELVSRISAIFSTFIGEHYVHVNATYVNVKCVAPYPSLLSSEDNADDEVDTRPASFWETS
IC50 [1],IC50 [2],IC50 (human MET kinase D1228N),IC50 (human MET kinase Y1230S),SMILES
2.6 nM,1 nM,3.4 nM,1.3 nM,COc1cc2nccc(Oc3ccc(NC(=O)c4cn(C(C)C)cc(-c5ccc(F)cc5)c4=O)nc3)c2cc1OC [Example 1]
5.3 nM,1 nM,29.3 nM,9.8 nM,COc1cc2nccc(Oc3ccc(NC(=O)c4cn(C)cc(-c5ccc(F)cc5)c4=O)nc3)c2cc1OC [Example 2]
3 nM,1 nM,7.4 nM,4.7 nM,CCn1cc(C(=O)Nc2ccc(Oc3ccnc4cc(OC)c(OC)cc34)cn2)c(=O)c(-c2ccc(F)cc2)c1 [Example 3]
1.7 nM,1 nM,6.5 nM,2.2 nM,COc1cc2nccc(Oc3ccc(NC(=O)c4cn(C(C)C)cc(-c5ccc(F)cc5F)c4=O)nc3)c2cc1OC [Example 4]
6.4 nM,2 nM,16.1 nM,5.4 nM,"COc1cc2nccc(Oc3ccc(NC(=O)c4cn(C(C)C)cc(-c5ccc(Cl)cc5)c4=O)nc3)c2cc1OC [Example 5, 5-(4-chlorophenyl)-N-(5-((6,7-dimethoxyquinolin-4-yl)oxy)pyridin-2-yl)-1-isopropyl-4-oxo-1,4-dihydropyridine-3-carboxamide]"
7.8 nM,2 nM,24.2 nM,11.9 nM,COc1cc2nccc(Oc3ccc(NC(=O)c4cn(C(C)C)cc(-c5ccc(F)c(F)c5)c4=O)nc3)c2cc1OC [Example 6]
2.6 nM,2 nM,6.4 nM,2.1 nM,"COCCn1cc(C(=O)Nc2ccc(Oc3ccnc4cc(OC)c(OC)cc34)cn2)c(=O)c(-c2ccc(F)cc2)c1 [Example 7, N-(5((6,7-dimethoxyquinolin-4-yl)oxy)pyridin-2-yl)-5-(4-fluorophenyl)-1-(2-methoxyethyl)-4-oxo-1,4-dihydropyridine-3-carboxamide]"
3.9 nM,2 nM,10.7 nM,4.3 nM,"COc1cc2nccc(Oc3ccc(NC(=O)c4cn(CC5CCOCC5)cc(-c5ccc(F)cc5)c4=O)nc3)c2cc1OC [Example 8, N-(5-((6,7-dimethoxyquinolin-4-yl)oxy)pyridin-2-yl)-5-(4-fluorophenyl)-4-oxo-1-((tetrahydro-2H-pyran-4-yl)methyl)-1,4-dihydropyridine-3-carboxamide]"
5.6 nM,2 nM,15.8 nM,9.1 nM,"COc1cc2nccc(Oc3ccc(NC(=O)c4cn(CC(C)(C)O)cc(-c5ccc(F)cc5)c4=O)nc3)c2cc1OC [Example 9, N-(5-((6,7-dimethoxyquinolin-4-yl)oxy)pyridin-2-yl)-5-(4-fluorophenyl)-1-(2-hydroxy-2-methylpropyl)-4-oxo-1,4-dihydropyridine-3-carboxamide]"
3.5 nM,4 nM,4.1 nM,2.8 nM,"CCCn1cc(C(=O)Nc2ccc(Oc3ccnc4cc(OC)c(OC)cc34)cn2)c(=O)c(-c2ccc(F)cc2)c1 [Example 10, N-(5((6,7-dimethoxyquinolin-4-yl)oxy)pyridin-2-yl)-5-(4-fluorophenyl)-4-oxo-1-propyl-1,4-dihydropyridine-3-carboxamide]"
7.7 nM,5 nM,9.4 nM,4.9 nM,"COc1cc2nccc(Oc3ccc(NC(=O)c4cn(CC(C)C)cc(-c5ccc(F)cc5)c4=O)nc3)c2cc1OC [Example 11, N-(5-((6,7-dimethoxyquinolin-4-yl)oxy)pyridin-2-yl)-5-(4-fluorophenyl)-1-isobutyl-4-oxo-1,4-dihydropyridine-3-carboxamide]"
5.6 nM,2 nM,9.7 nM,4.6 nM,"COc1cc2nccc(Oc3ccc(NC(=O)c4cn(C5CCOCC5)cc(-c5ccc(F)cc5)c4=O)nc3)c2cc1OC [Example 12, N-(5((6,7-dimethoxyquinolin-4-yl)oxy)pyridin-2-yl)-5-(4-fluorophenyl)-4-oxo-1-(tetrahydro-2H-pyran-4-yl)-1,4-dihydropyridine-3-carboxamide]"
4.9 nM,2 nM,11.6 nM,6 nM,"COc1cc2nccc(Oc3ccc(NC(=O)c4cn(CC(=O)N(C)C)cc(-c5ccc(F)cc5F)c4=O)nc3)c2cc1OC [Example 13, 5-(2,4-difluorophenyl)-N-(5((6,7-dimethoxyquinolin-4-yl)oxy)pyridin-2-yl)-1-(2-(dimethylamino)-2-oxoethyl)-4-oxo-1,4-dihydropyridine-3-carboxamide]"
15.9 nM,2 nM,30.6 nM,16.3 nM,COc1cc2nccc(Oc3ccc(NC(=O)c4cn(CC(=O)N5CCCC5)cc(-c5ccc(F)cc5F)c4=O)nc3)c2cc1OC [Example 14]
29.5 nM,2 nM,73.7 nM,53.3 nM,"COc1cc2nccc(Oc3ccc(NC(=O)c4cn(CC(=O)N5CCOCC5)cc(-c5ccc(F)cc5F)c4=O)nc3)c2cc1OC [Example 15, 5-(2,4-difluorophenyl)-N-(5-((6,7-dimethoxyquinolin-4-yl)oxy)pyridin-2-yl)-1-(2-morpholino-2-oxoethyl)-4-oxo-1,4-dihydropyridine-3-carboxamide]"
4.6 nM,4 nM,8.1 nM,6 nM,"CCC(CC)n1cc(C(=O)Nc2ccc(Oc3ccnc4cc(OC)c(OC)cc34)cn2)c(=O)c(-c2ccc(F)cc2F)c1 [Example 16, 5-(2,4-difluorophenyl)-N-(5-((6,7-dimethoxyquinolin-4yl)oxy)pyridin-2-yl)-4-oxo-1-(pentan-3-yl)-1,4-dihydropyridine-3-carboxamide]"
17.1 nM,28 nM,25 nM,11.4 nM,"CCCC(CCC)n1cc(C(=O)Nc2ccc(Oc3ccnc4cc(OC)c(OC)cc34)cn2)c(=O)c(-c2ccc(F)cc2F)c1 [Example 17, 5-(2,4-difluorophenyl)-N-(5-((6,7-dimethoxyquinolin-4yl)oxy)pyridin-2-yl)-1-(heptan-4-yl)-4-oxo-1,4-dihydropyridine-3-carboxamide]"
3.2 nM,2 nM,4.7 nM,2.7 nM,"COc1cc2nccc(Oc3ccc(NC(=O)c4cn(C(C)C)cc(-c5ccc(F)cc5Cl)c4=O)nc3)c2cc1OC [Example 18, 5-(2-chloro-4-fluorophenyl)-N-(5-((6,7-dimethoxyquinolin-4-yl)oxy)pyridin-2-yl)-1-isopropyl-4-oxo-1,4-dihydropyridine-3-carboxamide]"
,3 nM,,,"COc1cc2nccc(Oc3ccc(NC(=O)c4cn(C(C)C)c(C(C)C)c(-c5ccc(F)cc5)c4=O)nc3)c2cc1OC [Example 38, N-(5-((6,7-dimethoxyquinolin-4yl)oxy)pyridin-2-yl)-5-(4-fluorophenyl)-1,6-diisopropyl-4-oxo-1,4-dihydropyridine-3-carboxamide]"
,448 nM,,3710 nM,"COc1cc2nc(C)cc(Oc3ccc(NC(=O)c4cn(C(C)C)cc(-c5ccc(F)cc5)c4=O)nc3)c2cc1OC [Example 53, N-(5-((6,7-dimethoxy-2-methylquinolin-4-yl)oxy)pyridin-2-yl)-5-(4-fluorophenyl)-1-isopropyl-4-oxo-1,4-dihydropyridine-3-carboxamide]"

# From patent publication US20200216416A1, “QUINOLINE COMPOUNDS AS INHIBITORS OF TAM AND MET KINASES” (Array BioPharma Inc., priority 2019, published 2020)
